PubChem BioAssay AID1996
In brackets after ≈: the same amount, converted by molar mass.

conditions: buffer; pH 7.4; 200.0 µM

Question: With `CCOc1ccc(NC(=O)c2ccccc2NC(=O)c2cccnc2)cc1` as the compound, how does the solubility kinetic read?
Answer: The solubility kinetic was 1.4 µg/mL (≈ 3.87 µM).

Question: With `O=S(=O)(c1cccc2nonc12)N1CCCCC1` as the compound, how does the solubility kinetic read?
Answer: Its solubility kinetic is over 40.1 µg/mL.

Question: With `COc1ccccc1OCCn1cc(C=O)c2ccccc21` as the compound, how does the solubility kinetic read?
Answer: Its solubility kinetic is 7.8 µg/mL (≈ 26.4 µM).

Question: For `O=C1COc2ccc(C(=O)COC(=O)c3ccccc3Cl)cc2N1`, which solubility kinetic is on record?
Answer: The solubility kinetic was 4.5 µg/mL (≈ 13 µM).

Question: For `COc1ccc2ccccc2c1CNCCc1ccccc1.Cl`, which solubility kinetic is on record?
Answer: Its solubility kinetic is 42 µg/mL.

Question: For `COc1ccccc1/C=C/CN1CCCCC1`, which solubility kinetic is on record?
Answer: The solubility kinetic was 25.8 µg/mL (≈ 112 µM).

Question: With `Cc1sc(NC(=O)C2=COCCO2)c(C(N)=O)c1C` as the compound, how does the solubility kinetic read?
Answer: Its solubility kinetic is over 42.3 µg/mL.

Question: Which solubility kinetic does the source give for `Brc1ccc(-c2noc(-c3ccccn3)n2)o1` here?
Answer: Its solubility kinetic is 10.8 µg/mL (≈ 37 µM).

Question: Which solubility kinetic does the source give for `CCOC(=O)c1cnc(-c2ccc(C(F)(F)F)cn2)[nH]c1=O` here?
Answer: The solubility kinetic was 46.8 µg/mL (≈ 149 µM).

Question: With `O=S(=O)(c1ccc(F)cc1)N1CCc2ccccc2C1` as the compound, how does the solubility kinetic read?
Answer: Its solubility kinetic is 1.2 µg/mL (≈ 4.12 µM).

Question: With `COc1ccc(Br)cc1C(=O)Nc1ccccc1N1CCCC1` as the compound, how does the solubility kinetic read?
Answer: The solubility kinetic was under 0.4 µg/mL.

Question: With `Cc1ccc2c(c1)C1CN(C)CCC1N2C(=S)Nc1ccc(OC(F)F)cc1` (configuration not stated) as the compound, how does the solubility kinetic read?
Answer: Its solubility kinetic is 44.8 µg/mL (≈ 111 µM).

Question: With `O=C(CCCc1nc(-c2ccccc2Cl)no1)N1CCOCC1` as the compound, how does the solubility kinetic read?
Answer: The solubility kinetic was over 50.4 µg/mL.

Question: For `O=C(CN1C(=O)NC2(CCCCCCC2)C1=O)NCc1ccc(F)cc1`, which solubility kinetic is on record?
Answer: The solubility kinetic was 42.9 µg/mL (≈ 119 µM).

Question: For `CC(=O)Nc1ccc(C(=O)OCC(=O)N(C)C2CCCCC2)cc1`, which solubility kinetic is on record?
Answer: Its solubility kinetic is 36 µg/mL (≈ 108 µM).

Question: With `Cl.O=C(OCCN1CCCCC1)c1ccccc1F` as the compound, how does the solubility kinetic read?
Answer: Its solubility kinetic is over 43.2 µg/mL.

Question: Which solubility kinetic does the source give for `Cc1cccc2c(CCN)c[nH]c12.Cl` here?
Answer: Its solubility kinetic is over 31.6 µg/mL.

Question: With `Cn1ccnc1SCC(=O)Nc1ccc2c(c1)OCCO2` as the compound, how does the solubility kinetic read?
Answer: Its solubility kinetic is over 45.8 µg/mL.

Question: For `Cn1cccc1C(=O)OCC(=O)NCCCc1ccccc1`, which solubility kinetic is on record?
Answer: Its solubility kinetic is over 45.1 µg/mL.

Question: Which solubility kinetic does the source give for `CC1CC(Nc2ccccc2)c2ccccc2N1C(=O)c1ccncc1` (configuration not stated) here?
Answer: The solubility kinetic was 25.9 µg/mL (≈ 75.4 µM).

Question: With `O=C(O)C1C2CCC(C2)C1C(=O)Nc1ccccc1` (configuration not stated) as the compound, how does the solubility kinetic read?
Answer: The solubility kinetic was 38.8 µg/mL (≈ 150 µM).

Question: For `CC1Cc2cc(/C=C3/SC(=S)N(C)C3=O)ccc2O1` (configuration not stated), which solubility kinetic is on record?
Answer: Its solubility kinetic is under 0.6 µg/mL.

Question: For `Cc1ccc(C(=O)C(C)OC(=O)c2ccc(Cl)nc2)cc1` (configuration not stated), which solubility kinetic is on record?
Answer: Its solubility kinetic is 34.1 µg/mL (≈ 112 µM).

Question: With `COc1ccc2oc(C(=O)NC(C)c3ccccn3)c(C)c2c1` (configuration not stated) as the compound, how does the solubility kinetic read?
Answer: The solubility kinetic was over 46.6 µg/mL.

Question: With `Cc1ccc(CNC(=O)c2nccnc2C(=O)O)cc1` as the compound, how does the solubility kinetic read?
Answer: Its solubility kinetic is over 40.7 µg/mL.

Question: Which solubility kinetic does the source give for `Cc1ccc(F)cc1N=Cc1c(O)c2ccccc2oc1=O` here?
Answer: Its solubility kinetic is under 0.6 µg/mL.

Question: Which solubility kinetic does the source give for `O=C(COC(=O)Cc1ccc(Br)cc1)NCc1cccs1` here?
Answer: The solubility kinetic was 11.8 µg/mL (≈ 32 µM).

Question: With `O=C(NC1CCN(C(=O)NCc2ccccc2)CC1)c1ccccc1` as the compound, how does the solubility kinetic read?
Answer: The solubility kinetic was 6.2 µg/mL (≈ 18.4 µM).

Question: Which solubility kinetic does the source give for `Cc1ccc(S(=O)(=O)N2CCOCC2)cc1NC(=O)CNC(C)c1ccccc1.O=C(O)C(=O)O` (configuration not stated) here?
Answer: Its solubility kinetic is 74.1 µg/mL.

Question: With `O=[N+]([O-])c1cccc2c1ccc1ncccc12` as the compound, how does the solubility kinetic read?
Answer: Its solubility kinetic is 1.3 µg/mL (≈ 5.8 µM).

Question: Which solubility kinetic does the source give for `CCOC(=O)c1sc(=NC(=O)CCSc2ccccc2)n(C)c1C` here?
Answer: Its solubility kinetic is under 0.4 µg/mL.

Question: With `Cl.OC(CNC1CCCC1)COc1ccc(Cl)cc1` (configuration not stated) as the compound, how does the solubility kinetic read?
Answer: Its solubility kinetic is over 45.9 µg/mL.

Question: Which solubility kinetic does the source give for `CCOC(=O)C1CCN(C(=O)Nc2ccc(OC(F)(F)F)cc2)CC1` here?
Answer: Its solubility kinetic is 16.1 µg/mL (≈ 44.7 µM).

Question: For `O=C(c1cc2ccccc2s1)N1CCOCC1`, which solubility kinetic is on record?
Answer: Its solubility kinetic is over 37.1 µg/mL.

Question: For `Cc1nc([N+](=O)[O-])cn1CCC#N`, which solubility kinetic is on record?
Answer: Its solubility kinetic is over 27 µg/mL.

Question: For `Cc1cc(=O)[nH]c(-c2ccc(C(F)(F)F)cc2)n1`, which solubility kinetic is on record?
Answer: The solubility kinetic was over 38.1 µg/mL.

Question: Which solubility kinetic does the source give for `NC(=NCCc1ccccc1)NS(=O)(=O)c1ccccc1F` here?
Answer: The solubility kinetic was over 48.2 µg/mL.

Question: For `COc1cc2c(cc1OC)C(C)N(S(=O)(=O)c1cn(C)c(C)n1)CC2` (configuration not stated), which solubility kinetic is on record?
Answer: Its solubility kinetic is over 54.8 µg/mL.

Question: For `CCn1c(SCC(=O)NC2CCCC2)nnc1-c1ccco1`, which solubility kinetic is on record?
Answer: The solubility kinetic was over 48.1 µg/mL.

Question: With `COc1ccccc1CC(=O)N1CCN(c2ccc(F)cc2)CC1` as the compound, how does the solubility kinetic read?
Answer: The solubility kinetic was over 49.3 µg/mL.

Question: For `Cc1noc(C)c1NC(=O)NCCN1CCN(Cc2ccccc2)CC1`, which solubility kinetic is on record?
Answer: Its solubility kinetic is over 53.6 µg/mL.

Question: Which solubility kinetic does the source give for `Cc1cc(NC(=O)c2ccc([N+](=O)[O-])cc2)no1` here?
Answer: The solubility kinetic was under 0.2 µg/mL.

Question: With `N/C(COc1cccc(Cl)c1)=N\O` as the compound, how does the solubility kinetic read?
Answer: Its solubility kinetic is 20.1 µg/mL (≈ 100 µM).

Question: With `O=C1CC(c2ccccc2)CC2=C1C=Nc1ccccc1N2` (configuration not stated) as the compound, how does the solubility kinetic read?
Answer: Its solubility kinetic is 37 µg/mL (≈ 128 µM).

Question: With `COc1cc(/C=C(\C#N)C(=O)Nc2ccccn2)ccc1O` as the compound, how does the solubility kinetic read?
Answer: Its solubility kinetic is 5.9 µg/mL (≈ 20 µM).

Question: With `O=[N+]([O-])c1ccccc1S(=O)(=O)c1ccccc1` as the compound, how does the solubility kinetic read?
Answer: Its solubility kinetic is over 39.5 µg/mL.

Question: For `O=C(NC1CCOc2ccccc21)c1ccc(Cl)nc1` (configuration not stated), which solubility kinetic is on record?
Answer: The solubility kinetic was over 43.3 µg/mL.

Question: For `CSc1cccc(-n2ccc(=O)c(C)c2C)c1`, which solubility kinetic is on record?
Answer: The solubility kinetic was over 36.8 µg/mL.

Question: For `Cc1cccc(Nc2nc(Cl)ncc2F)c1C`, which solubility kinetic is on record?
Answer: The solubility kinetic was 5.3 µg/mL (≈ 21.1 µM).

Question: Which solubility kinetic does the source give for `Cc1occc1C(=O)N1CCCC(Nc2ccc(F)c(F)c2)C1` (configuration not stated) here?
Answer: Its solubility kinetic is 46.6 µg/mL (≈ 145 µM).

Question: For `NC(=O)c1sc2nc(-c3cccs3)ccc2c1N`, which solubility kinetic is on record?
Answer: The solubility kinetic was 6.1 µg/mL (≈ 22.2 µM).

Question: With `Cc1ccc(NC(=O)CN2CCCC2c2cccn2C)cc1C` (configuration not stated) as the compound, how does the solubility kinetic read?
Answer: The solubility kinetic was 42.9 µg/mL (≈ 138 µM).

Question: For `O=C(CCNC(=O)c1ccc(Br)cc1)NCc1ccco1`, which solubility kinetic is on record?
Answer: Its solubility kinetic is over 52.7 µg/mL.

Question: With `Cc1ccc(Cl)cc1NC(=O)NCCN1CCCCC1` as the compound, how does the solubility kinetic read?
Answer: Its solubility kinetic is over 44.4 µg/mL.

Question: For `Cc1ccc(N/C=C/C(=O)c2ccccc2)cc1Br`, which solubility kinetic is on record?
Answer: Its solubility kinetic is under 0.7 µg/mL.

Question: With `COc1cccc(C(=O)NCCSc2c(C)[nH]c3ccccc23)c1OC` as the compound, how does the solubility kinetic read?
Answer: The solubility kinetic was 16.1 µg/mL (≈ 43.5 µM).

Question: With `O=C(CSc1cccc[n+]1[O-])Nc1ccc(Br)cc1Br` as the compound, how does the solubility kinetic read?
Answer: The solubility kinetic was 6.7 µg/mL (≈ 16 µM).

Question: For `Cc1cc(C)c(S(=O)(=O)NC2CC(C)(C)NC(C)(C)C2)cc1Br`, which solubility kinetic is on record?
Answer: Its solubility kinetic is 12.5 µg/mL (≈ 31 µM).

Question: With `COc1ccccc1C(O)c1nccn1C` (configuration not stated) as the compound, how does the solubility kinetic read?
Answer: Its solubility kinetic is over 32.7 µg/mL.

Question: For `COc1ccc(NC(=O)C2CCCO2)c(OC)c1` (configuration not stated), which solubility kinetic is on record?
Answer: Its solubility kinetic is 33.9 µg/mL (≈ 135 µM).

Question: With `CN(C(=S)NC(=O)C12CC3CC(CC(C3)C1)C2)c1ccc(O)cc1` as the compound, how does the solubility kinetic read?
Answer: Its solubility kinetic is 45.8 µg/mL (≈ 133 µM).

Question: Which solubility kinetic does the source give for `Cc1cccc(NC(=S)N(CCN(C)C)C(C)c2cccnc2)c1` (configuration not stated) here?
Answer: Its solubility kinetic is over 51.4 µg/mL.
